Source: US12129258B2, “Diaryl macrocyclic compound and pharmaceutical composition, and use thereof” (PrimeGene (Beijing) Co., Ltd., priority 2018, dated 2024)
Like-named read-outs stand apart in the source and are kept apart here.

Key:
ROS1-G2032R = ROS1-G2032R (Homo sapiens (Human), UniProt P08922, G2032R); test: LanceUltra kinase activity assay, ROS1-G2032R; type: biochemical; details: 2.6 μM ATP
Description: 5 μl 40 mM EDTA was used to stop the reaction. Then 2 nM Europium-anti-phosphotyrosine (PT66) (PerkinElmer, Cat. AD0069) was added and incubated at room temperature for 60 mins. […] The IC50 values of the compounds were calculated using XLFIT5 (IDBS) software.

TRKB = TRKB (Homo sapiens (Human), UniProt Q16620); test: Mobility shift assay, TRKB kinase; details: read-out: TRKB IC50, ATP 71.2 μM
Chain of TRKB (Q16620 32-822): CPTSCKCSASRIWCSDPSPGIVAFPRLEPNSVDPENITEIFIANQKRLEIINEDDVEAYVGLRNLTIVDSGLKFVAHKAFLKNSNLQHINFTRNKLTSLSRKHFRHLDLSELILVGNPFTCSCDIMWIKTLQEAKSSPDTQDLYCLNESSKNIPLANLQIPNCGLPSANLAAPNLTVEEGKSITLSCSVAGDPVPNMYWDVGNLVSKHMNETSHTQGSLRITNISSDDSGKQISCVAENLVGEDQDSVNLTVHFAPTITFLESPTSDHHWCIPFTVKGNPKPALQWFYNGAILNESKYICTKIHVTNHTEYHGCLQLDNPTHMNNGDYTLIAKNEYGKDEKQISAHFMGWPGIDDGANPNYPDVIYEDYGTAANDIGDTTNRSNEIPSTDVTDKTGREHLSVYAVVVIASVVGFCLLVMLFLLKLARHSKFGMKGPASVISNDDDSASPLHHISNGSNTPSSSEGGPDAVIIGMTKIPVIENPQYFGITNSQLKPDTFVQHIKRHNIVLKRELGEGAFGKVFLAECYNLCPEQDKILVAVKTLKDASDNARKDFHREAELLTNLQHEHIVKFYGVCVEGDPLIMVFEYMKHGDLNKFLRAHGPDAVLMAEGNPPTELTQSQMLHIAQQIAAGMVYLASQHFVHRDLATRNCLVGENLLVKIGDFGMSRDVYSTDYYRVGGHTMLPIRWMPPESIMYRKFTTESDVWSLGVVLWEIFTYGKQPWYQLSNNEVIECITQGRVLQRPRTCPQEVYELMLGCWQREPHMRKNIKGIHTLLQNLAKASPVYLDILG
Description: The inhibitory activity of compounds on TRKA, TRKB, TRKC and ROS1 kinase was analyzed with Mobility shift assay. The screening platform is MSA based microfluidic chip technology, which applies the basic concept of capillary electrophoresis to microfluidic environment. The substrate used in the experiment is a poly-peptide labeled with fluorescent. Under the catalysis of enzyme in the reaction system, the substrate is transformed into a product, with the charge changed accordingly. MSA technology could detect the substrate and the product with different charge separately.
The compound powder was dissolved in 100% DMSO (Sigma, Cat. D8418-1l) to prepare a 10 mM storage solution. […] The reaction was carried out at room temperature for 30 min/40 min/20 min/20 min respectively. After the reaction was terminated, the conversion rate was read by Caliper EZ Reader II.
Conversion %_Min: mean value of negative control, representing the conversion rate without enzyme activity;
Conversion %_Max: mean value of positive control, which represents the conversion rate reading without compound inhibition.
Taking the log value of concentration as X axis and the percentage inhibition rate as Y axis, the dose response curve was fitted by the analysis software GraphPad Prism 5, thus the IC50 value of each compound on enzyme activity inhibition was obtained.

TRKC = TRKC (Homo sapiens (Human), UniProt Q16288); test: Mobility shift assay, TRKC kinase; details: read-out: TRKC IC50, ATP 44.4 μM
Chain of TRKC (Q16288 other isoform, or with tags, fused parts or gaps isoform Q16288-3): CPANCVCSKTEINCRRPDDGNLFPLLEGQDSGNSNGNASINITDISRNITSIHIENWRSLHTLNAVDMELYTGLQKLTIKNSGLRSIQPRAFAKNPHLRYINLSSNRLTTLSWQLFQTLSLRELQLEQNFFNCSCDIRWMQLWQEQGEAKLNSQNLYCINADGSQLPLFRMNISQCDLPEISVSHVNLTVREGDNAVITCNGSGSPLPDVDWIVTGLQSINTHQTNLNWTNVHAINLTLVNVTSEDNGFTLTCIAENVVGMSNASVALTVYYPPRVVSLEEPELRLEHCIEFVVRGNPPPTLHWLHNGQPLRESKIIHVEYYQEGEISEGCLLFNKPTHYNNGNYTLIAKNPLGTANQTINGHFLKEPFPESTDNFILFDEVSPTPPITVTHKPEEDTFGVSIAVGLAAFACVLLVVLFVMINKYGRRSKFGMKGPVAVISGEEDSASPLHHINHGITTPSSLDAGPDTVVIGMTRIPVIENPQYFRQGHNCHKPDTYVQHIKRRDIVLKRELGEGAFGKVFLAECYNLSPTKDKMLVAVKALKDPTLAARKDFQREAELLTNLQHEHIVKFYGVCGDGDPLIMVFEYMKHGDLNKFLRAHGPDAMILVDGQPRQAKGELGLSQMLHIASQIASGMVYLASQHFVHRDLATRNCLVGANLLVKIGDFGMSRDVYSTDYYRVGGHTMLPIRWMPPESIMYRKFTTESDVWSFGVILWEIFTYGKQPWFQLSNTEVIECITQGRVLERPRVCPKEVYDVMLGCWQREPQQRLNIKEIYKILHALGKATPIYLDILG

Ba/F3 LMNA-NTRK1-WT = test: Cell proliferation inhibition (CellTiter-Glo), Ba/F3 LMNA-NTRK1-WT; type: cell-based; details: Mus musculus, BaF3, 72 h
Source text: (§1) 4. Inhibitory Effect of Compounds on the Proliferation of TRK Fusion and Mutant Stable Cell Lines (IC50)
(§2) Six cell lines including Ba/F3 LMNA-NTRK1-WT, Ba/F3 LMNA-NTRK1-G595R, Ba/F3 ETV6-NTRK2-WT, Ba/F3 ETV6-NTRK2-G639R, Ba/F3 ETV6-NTRK2-G639R and Ba/F3 ETV6-NTRK3-G623R were used in this experiment.
(§3) The operation is described briefly as follows:
(§4) The cells in logarithmic growth phase were harvested to ensure that the cell viability was above 90%. […] Then each well containing the cells of the 96-well plate was added the compound solutions, 3 wells for each compound solution, and continued to incubate for another 72 hrs. Then CellTiter-Glo® kit (Promega, Cat #G7572) was used to do the detection. First, the CTG reagent was melted and the cell plate was balanced to room temperature. The same volume of CTG solution was added into each well and vibrated on the shaker for 5 minutes to lyse the cells. The cell plate was kept at room temperature for 20 minutes to stabilize the luminescent signal. […] Cell survival rate (%)=(1umdrug−1ummedium)/(1umcell−lummedium)×100%

[1] = tested on: H1975 (L858R and T790M double mutation) cells; test: Analysis of synergistic effect with EGFR inhibitor (Chou-Talalay), H1975 proliferation; type: cell-based; details: combination with AZD9291, H1975 cells, 72 hr, Chou-Talalay index method
Description: 5. Analysis of Synergistic Effect
H1975 (L858R and T790M double mutation) cells were cultured in RPMI-1640 medium containing 10% FBS and 1% P/S ([…]). In the testing of the compounds, H1975 cells were seeded in 96-well plate (Corning, Cat #3917) at 3000 cell/well and the compounds were added at 195 μL solution/well. The initial test concentration of the compound was 10 μM, 3-fold gradient diluted to obtain 11 samples. 4 μL of each sample was added to 96 μL RPMI-1640 medium to dilute the 25× Compound. 5 μL was added to 195 μL cell medium (the final concentration of DMSO is 0.1%, v/v). After 72 hr incubation, 35 μL of CellTiter-Blue® (Promega, Cat #G8082) was added to the cells. The fluorescence signal was measured with FlexStation 3 (Molecular Devices) according to the instructions, and the IC50 value of the compound on cell proliferation inhibition was calculated by Graphpad Grism 5.0 software. The Chou-Talalay index method was used to analyze the effect of the combination. 0.9≤Combination Index (CI)≤1.1 means additive effect, 0.8≤CI<0.9 means low synergistic effect, 0.6≤CI<0.8 means medium synergistic effect, 0.4≤CI<0.6 means high synergistic effect, 0.2≤CI<0.4 means strong synergistic effect.

Ba/F3 ETV6-NTRK2-G639R = test: Cell proliferation inhibition (CellTiter-Glo), Ba/F3 ETV6-NTRK2-G639R; type: cell-based; details: Mus musculus, BaF3, 72 h, 72 hrs, read-out: IC50 proliferation Ba/F3 ETV6-NTRK2-G639R
Description: as §1
(§5) Six cell lines including Ba/F3 LMNA-NTRK1-WT, Ba/F3 LMNA-NTRK1-G595R, Ba/F3 ETV6-NTRK2-WT, Ba/F3 ETV6-NTRK2-G639R, Ba/F3 ETV6-NTRK2-G639R and Ba/F3 ETV6-NTRK3-G623R were used in this experiment. For the six cell lines, the maximum test concentration of the compound was 1 μM, 1 μM, 10 μM, […], 1 μM and 10 μM, were 3.16-fold gradient diluted to obtain 9 samples.
as §3
(§6) The cells in logarithmic growth phase were harvested to ensure that the cell viability was above 90%. 3000 cell/well were seeded in 96-well plate (Corning, Cat #3603). The cells were incubated overnight with 5% CO2, 95% humidity at 37° C. Then each well containing the cells of the 96-well plate was added the compound solutions, 3 wells for each compound solution, and continued to incubate for another 72 hrs. Then CellTiter-Glo® kit (Promega, Cat #G7572) was used to do the detection. First, the CTG reagent was melted and the cell plate was balanced to room temperature. The same volume of CTG solution was added into each well and vibrated on the shaker for 5 minutes to lyse the cells. The cell plate was kept at room temperature for 20 minutes to stabilize the luminescent signal. The luminescent value was collected by SpectraMax microplate detector (MD, 2104-0010A). […] Cell survival rate (%)=(1umdrug−1ummedium)/(1umcell−lummedium)×100%

TRKA [2] = target: T1, TRKA (Homo sapiens (Human), UniProt P04629); test: Mobility shift assay, TRKA kinase; type: biochemical; details: ATP 47.8 μM
T1 sequence (P04629 33-796): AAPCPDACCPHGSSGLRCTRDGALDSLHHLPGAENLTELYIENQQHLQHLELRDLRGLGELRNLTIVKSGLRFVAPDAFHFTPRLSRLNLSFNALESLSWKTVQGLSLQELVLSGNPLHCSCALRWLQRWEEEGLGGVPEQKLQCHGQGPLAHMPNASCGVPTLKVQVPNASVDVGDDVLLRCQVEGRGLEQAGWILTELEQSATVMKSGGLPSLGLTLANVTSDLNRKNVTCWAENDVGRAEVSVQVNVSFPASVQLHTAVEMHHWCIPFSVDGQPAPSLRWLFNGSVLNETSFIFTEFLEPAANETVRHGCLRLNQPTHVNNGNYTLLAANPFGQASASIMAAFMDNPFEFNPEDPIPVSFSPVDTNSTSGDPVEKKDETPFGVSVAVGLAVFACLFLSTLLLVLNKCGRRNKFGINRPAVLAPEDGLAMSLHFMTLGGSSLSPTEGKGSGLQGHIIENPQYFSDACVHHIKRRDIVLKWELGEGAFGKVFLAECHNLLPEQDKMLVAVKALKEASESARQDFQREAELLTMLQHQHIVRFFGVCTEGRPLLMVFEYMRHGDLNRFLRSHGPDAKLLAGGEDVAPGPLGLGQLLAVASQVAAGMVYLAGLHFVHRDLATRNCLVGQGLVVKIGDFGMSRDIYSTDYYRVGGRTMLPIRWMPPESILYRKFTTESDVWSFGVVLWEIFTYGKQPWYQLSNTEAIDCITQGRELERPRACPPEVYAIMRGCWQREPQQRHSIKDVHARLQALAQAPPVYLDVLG
Source text: (§7) The operation is described as follows:
(§8) Conversion %_Sample: conversion rate of sample;

TRKA [3] = target: T1, TRKA; test: HTRF kinase activity assay, TRKA; type: biochemical; details: 90 μM ATP
Description: The IC50 values of the compounds were calculated using XLFIT5 (IDBS) software.

ROS1 = ROS1 (Homo sapiens (Human), UniProt P08922); test: Mobility shift assay, ROS1 kinase; type: biochemical; details: ATP 26.7 μM
Chain of ROS1 (P08922 28-2347): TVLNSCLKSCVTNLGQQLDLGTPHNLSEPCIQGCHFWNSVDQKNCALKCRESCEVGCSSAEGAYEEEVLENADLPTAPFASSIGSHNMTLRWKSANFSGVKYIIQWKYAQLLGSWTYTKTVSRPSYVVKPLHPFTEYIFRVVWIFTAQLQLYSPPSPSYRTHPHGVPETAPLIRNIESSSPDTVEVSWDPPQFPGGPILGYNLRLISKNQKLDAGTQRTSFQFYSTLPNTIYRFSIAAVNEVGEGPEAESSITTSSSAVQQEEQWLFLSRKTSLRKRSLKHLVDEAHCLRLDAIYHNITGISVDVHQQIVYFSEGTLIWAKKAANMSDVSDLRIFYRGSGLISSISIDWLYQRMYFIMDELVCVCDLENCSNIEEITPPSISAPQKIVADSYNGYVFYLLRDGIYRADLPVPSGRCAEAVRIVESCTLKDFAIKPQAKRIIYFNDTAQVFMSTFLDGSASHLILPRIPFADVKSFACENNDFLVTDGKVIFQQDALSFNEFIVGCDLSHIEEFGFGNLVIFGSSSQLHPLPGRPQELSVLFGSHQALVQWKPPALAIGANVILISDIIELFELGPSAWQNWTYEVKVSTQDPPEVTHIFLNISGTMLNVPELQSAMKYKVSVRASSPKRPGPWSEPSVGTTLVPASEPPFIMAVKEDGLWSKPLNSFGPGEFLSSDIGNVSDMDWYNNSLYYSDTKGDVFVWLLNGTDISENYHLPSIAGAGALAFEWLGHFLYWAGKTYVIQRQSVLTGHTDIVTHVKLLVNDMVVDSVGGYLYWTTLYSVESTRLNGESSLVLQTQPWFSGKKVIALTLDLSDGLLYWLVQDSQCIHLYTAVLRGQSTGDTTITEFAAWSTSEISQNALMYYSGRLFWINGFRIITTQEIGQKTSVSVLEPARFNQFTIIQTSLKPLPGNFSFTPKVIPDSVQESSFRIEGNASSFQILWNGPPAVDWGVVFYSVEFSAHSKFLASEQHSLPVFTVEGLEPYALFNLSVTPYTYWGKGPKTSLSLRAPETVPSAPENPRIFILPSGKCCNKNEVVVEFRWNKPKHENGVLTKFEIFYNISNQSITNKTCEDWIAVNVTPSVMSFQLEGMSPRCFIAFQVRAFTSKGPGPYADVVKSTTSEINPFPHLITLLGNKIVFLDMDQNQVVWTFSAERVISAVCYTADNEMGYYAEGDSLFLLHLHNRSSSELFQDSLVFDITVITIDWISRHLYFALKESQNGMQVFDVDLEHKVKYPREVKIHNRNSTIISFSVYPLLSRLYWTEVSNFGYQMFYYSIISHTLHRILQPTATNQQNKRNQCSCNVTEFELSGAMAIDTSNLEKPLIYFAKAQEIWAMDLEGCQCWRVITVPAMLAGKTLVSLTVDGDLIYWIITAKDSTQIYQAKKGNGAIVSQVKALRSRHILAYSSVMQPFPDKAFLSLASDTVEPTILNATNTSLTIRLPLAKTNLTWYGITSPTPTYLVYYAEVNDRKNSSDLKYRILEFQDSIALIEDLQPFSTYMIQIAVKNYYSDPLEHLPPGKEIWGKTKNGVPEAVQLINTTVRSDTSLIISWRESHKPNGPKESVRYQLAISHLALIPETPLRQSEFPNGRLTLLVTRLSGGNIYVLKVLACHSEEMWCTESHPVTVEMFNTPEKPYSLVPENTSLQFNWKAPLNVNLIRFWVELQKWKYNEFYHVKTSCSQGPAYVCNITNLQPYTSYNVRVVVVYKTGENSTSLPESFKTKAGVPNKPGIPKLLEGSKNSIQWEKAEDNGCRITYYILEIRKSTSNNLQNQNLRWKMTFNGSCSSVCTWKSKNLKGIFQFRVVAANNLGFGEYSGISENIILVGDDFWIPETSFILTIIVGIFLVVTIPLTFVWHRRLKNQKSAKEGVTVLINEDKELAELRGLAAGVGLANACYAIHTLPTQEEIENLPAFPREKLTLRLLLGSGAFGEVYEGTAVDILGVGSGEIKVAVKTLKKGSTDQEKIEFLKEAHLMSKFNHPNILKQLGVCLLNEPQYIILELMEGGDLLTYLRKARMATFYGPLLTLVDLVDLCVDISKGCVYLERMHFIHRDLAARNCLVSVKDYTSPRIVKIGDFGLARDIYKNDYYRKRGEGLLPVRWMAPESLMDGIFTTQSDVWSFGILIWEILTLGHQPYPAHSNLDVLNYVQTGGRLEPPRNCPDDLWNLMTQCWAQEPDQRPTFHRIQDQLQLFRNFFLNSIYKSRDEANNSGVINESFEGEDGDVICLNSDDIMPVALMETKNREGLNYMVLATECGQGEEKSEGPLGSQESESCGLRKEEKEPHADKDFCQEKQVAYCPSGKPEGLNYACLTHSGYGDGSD
Source text: as §7, §8

Ba/F3 LMNA-NTRK1-G595R = test: Cell proliferation inhibition (CellTiter-Glo), Ba/F3 LMNA-NTRK1-G595R; type: cell-based; details: Mus musculus, BaF3, 72 h
Source text: as §1, §2, §3, §4

Ba/F3 ETV6-NTRK2-WT = test: Cell proliferation inhibition (CellTiter-Glo), Ba/F3 ETV6-NTRK2-WT; type: cell-based; details: Mus musculus, BaF3, 72 h, 72 hrs, read-out: IC50 proliferation Ba/F3 ETV6-NTRK2-WT
Description: as §1, §5, §3, §6

Chain of ROS1-G2032R (P08922 28-2347 G2032R): as the sequence (P08922 28-2347) above, with G2005R counted along it

- IC50 (ROS1-G2032R): 0.36 nM
- IC50 (TRKB): 0.5 nM
- IC50 (TRKC): 0.61 nM
- IC50 (Ba/F3 LMNA-NTRK1-WT; test batch marked #): 1.04 nM
- IC50 (Ba/F3 LMNA-NTRK1-WT; test batch marked *): 5.4 nM
- IC50 (Ba/F3 ETV6-NTRK2-G639R; test batch marked #): 64.6 nM
- IC50 (Ba/F3 ETV6-NTRK2-G639R; test batch marked *): 100 nM
- IC50 (TRKA [2]): 0.42 nM
- IC50 (TRKA [3]): 0.13 nM
- IC50 (ROS1): 0.33 nM
- IC50 (Ba/F3 LMNA-NTRK1-G595R; test batch marked #): 1.34 nM
- IC50 (Ba/F3 LMNA-NTRK1-G595R; test batch marked *): 7.8 nM
- IC50 (Ba/F3 ETV6-NTRK2-WT; test batch marked #): 4.24 nM
- IC50 (Ba/F3 ETV6-NTRK2-WT; test batch marked *): 7.8 nM
Compound: C[C@H]1COC(=O)c2cnn3ccc(nc23)N[C@H](C)c2cc(F)ccc2O1 [Example 1, (1^3E,1^4E,3R,6S)-4^5-fluoro-3,6-dimethyl-5,8-dioxa-2-aza-1(5,3)-pyrazolo[1,5-a]pyrimidina-4(1,2)-benzenacyclononaphan-9-one]
- Combination Index (CI) [1]: 0.53-0.67
